Laboratory results: PMC12162926, “A novel strategy for identifying hepatotoxic constituents in traditional Chinese medicine using dose-normalized intracellular accumulation as a cytotoxicity indicator: a case study of Jinlingzi San” (Frontiers in Pharmacology, 2025)

Legend:
L-02 cells [1] = assay: Cell growth inhibition assay (CCK-8); type: cell-based, human; conditions: single compounds; for IC50 (cell viability): L-02, 24 h exposure; for IC50: Homo sapiens, L02, L-02, 24 h exposure, read-out: IC50 (cell viability)
L-02 cells [2] = assay: Intracellular identification of L-02 cell-uptake components by LC–MS/MS; type: in vitro ADME, human; conditions: L-02 exposed to JLZS-containing medium 6.5 mg/mL for 2 h
Description: The powder of 25 g FT and 25 g RC was evenly blended and then refluxed twice with six-fold 50% ethanol (1: 6, w/v) for 1 h; the collected filtrate was evaporated to dryness and further dissolved in DMSO, after filtering using the 0.22-µm cellulose acetate membrane. JLZS-containing medium (6.5 mg/mL) was freshly prepared by diluting the filtrate with RPMI-1640. Likewise, RC-containing medium was freshly prepared in the same method independently.
L-02 cells were seeded on 9-cm-diameter cell culture plates; after ∼80% confluent, the cultured cells were incubated with 6.5 mg/mL JLZS-containing medium. After 2-h exposure, L-02 cells were quickly washed free of culture medium with cold PBS (−) twice and harvested with 1 mL of 0.25% trypsin-EDTA for cell isolation. The cell suspension (∼5 × 10^6 cells) was spun down, and the cells were further washed twice in cold PBS (−). Then, 200 µL of methanol was used to lyse the collected cells with vortex mixing for 1 min. The cell lysates were centrifuged at 12,000 rpm for 4 min, and 10 μL of the centrifugal supernatant was injected into the LC–MS/MS system for identified analysis.
The LC–MS/MS system consisted of a Thermo TSQ Quantum Ultra triple-quadrupole mass spectrometer equipped with an electrospray ionization source (San Jose, CA, United States). LCquan quantitation software (version 2.5.6, Thermo Fisher Scientific, Waltham, MA, USA) was used to control the LC–MS/MS system for data acquisition and analysis. Analytes and IS separation were conducted using a Waters XTerra® MS C18 column (3.0 mm × 50 mm, 5 µm) maintained at 20 °C. By injecting 5 µL samples with a flow rate of 0.2 mL/min, chromatographic separation was achieved using a mobile phase of 0.1% formic acid–water (A) and methanol (B) via gradient elution, 0.0–2.0 min, 35%–50% B; 2.0–2.1 min, 50%–55% B; 2.1–2.5 min, 55%–60% B; 2.5–14.0 min, 60% B. The analytes and IS were detected in the ESI source by polarity switching from positive for 0.0–8.0 min to negative-ion modes for 8.5–14.0 min in a single run with multiple reaction monitoring (MRM).

[3] = Stability of analytes in cell lysates (LC–MS/MS method validation); type: physicochemical; conditions: n=3; for Post-preparation stability RE%: 4 ℃, 24 h at autosampler; for Short-term stability RE%: 12 h at room temperature; for Long-term stability RE%: -80℃ for a month; for Freeze-thaw stability RE%: three freeze-thaw
Description: The stability of seven analytes including short-term stability (12 h at room temperature), post-preparation stability at 4 ℃ (24 h at autosampler), freeze-thaw stability (three freeze-thaw stability) and long-term stability (-80℃ for a month) was tested by analyzing three replicates at low and high QC levels during various sample storage and handling process.

L-02 cells [4] = assay: Intracellular accumulation in L-02 cells by LC–MS/MS; type: in vitro ADME, human; conditions: for intracellular uptake in the JLZS group compared with the RC group: L-02, JLZS 6.5 mg/mL vs RC 3.25 mg/mL; for intracellular uptake in the JLZS group compared with the RC group / Intracellular concentration: n = 6; for Intracellular concentration: L-02, JLZS extracts 6.5 mg/mL
[5] = set-up: method as in Gu et al., 2021; conditions: pharmacokinetic level, JLZS vs single herb; ref Gu et al., 2021; cited from earlier work

COc1ccc2c(c1OC)CN(C)CCc1cc3c(cc1C(=O)C2)OCO3 [ALL, allocryptopine]
IC50 (cell viability) (L-02 cells [1]): not detected IC50 values within the set concentration range

COc1ccc2cc3[n+](cc2c1OC)CCc1cc2c(cc1-3)OCO2 [BER, berberine]
detection in cell lysates (L-02 cells [2]): found in the cell lysates
IC50 (L-02 cells [1]): 41.2 µg/mL
Post-preparation stability RE% ([3]; high QC level): 3.1%
Post-preparation stability RE% ([3]; low QC level): 1.8%
Short-term stability RE% ([3]; high QC level): 2.5%
Short-term stability RE% ([3]; low QC level): 5.6%
Long-term stability RE% ([3]; high QC level): 1.2%
Long-term stability RE% ([3]; low QC level): 1.8%
Freeze-thaw stability RE% ([3]; high QC level): 6.9%
Freeze-thaw stability RE% ([3]; low QC level): 5.6%
intracellular uptake in the JLZS group compared with the RC group (L-02 cells [4]): decreased significantly
Intracellular concentration (L-02 cells [4]; time 0.25 h): 3.2 ± 0.5 ng/mL
Intracellular concentration (L-02 cells [4]; time 0.5 h): 3.7 ± 0.3 ng/mL
Intracellular concentration (L-02 cells [4]; time 1 h): 5.5 ± 1.3 ng/mL
Intracellular concentration (L-02 cells [4]; time 1.5 h): 7.2 ± 2.5 ng/mL
Intracellular concentration (L-02 cells [4]; time 2 h): 8.3 ± 4.0 ng/mL
Intracellular concentration (L-02 cells [4]; time 3 h): 10.1 ± 1.7 ng/mL
Intracellular concentration (L-02 cells [4]; time 5 h): 12.3 ± 2.5 ng/mL
Intracellular concentration (L-02 cells [4]; time 8 h): 15.6 ± 4.9 ng/mL

c1c2c(cc3c1OCO3)-c1cc3ccc4c(c3c[n+]1CC2)OCO4 [COP, coptisine]
detection in cell lysates (L-02 cells [2]): found in the cell lysates
IC50 (L-02 cells [1]): 14 µg/mL
Post-preparation stability RE% ([3]; high QC level): 6.8%
Post-preparation stability RE% ([3]; low QC level): -0.6%
Short-term stability RE% ([3]; high QC level): 6.2%
Short-term stability RE% ([3]; low QC level): 5.6%
Long-term stability RE% ([3]; high QC level): 6.6%
Long-term stability RE% ([3]; low QC level): 4.0%
Freeze-thaw stability RE% ([3]; high QC level): 5.0%
Freeze-thaw stability RE% ([3]; low QC level): 0.7%
intracellular uptake in the JLZS group compared with the RC group (L-02 cells [4]): decreased significantly
Intracellular concentration (L-02 cells [4]; time 0.25 h): 38.3 ± 4.9 ng/mL
Intracellular concentration (L-02 cells [4]; time 0.5 h): 44.0 ± 11.4 ng/mL
Intracellular concentration (L-02 cells [4]; time 1 h): 67.5 ± 7.7 ng/mL
Intracellular concentration (L-02 cells [4]; time 1.5 h): 84.4 ± 21.2 ng/mL
Intracellular concentration (L-02 cells [4]; time 2 h): 98.1 ± 34.8 ng/mL
Intracellular concentration (L-02 cells [4]; time 3 h): 134.8 ± 24.4 ng/mL
Intracellular concentration (L-02 cells [4]; time 5 h): 197.6 ± 45.9 ng/mL
Intracellular concentration (L-02 cells [4]; time 8 h): 261.8 ± 60.2 ng/mL
dose-normalized intracellular accumulation (ranking) (L-02 cells [4]; ratio of highest intracellular accumulation versus content in JLZS extracts, L-02): the highest

COc1cc2c(cc1OC)[C@H]1[C@@H](C)c3ccc(OC)c(OC)c3CN1CC2 [COR, corydaline]
IC50 (cell viability) (L-02 cells [1]): not detected IC50 values within the set concentration range
elimination in the JLZS group compared with the single-herb group [5]: decreased significantly

COc1cc2c(cc1OC)-c1c(C)c3ccc(OC)c(OC)c3c[n+]1CC2 [DHC, dehydrocorydaline]
detection in cell lysates (L-02 cells [2]): found in the cell lysates
IC50 (cell viability) (L-02 cells [1]): not detected IC50 values within the set concentration range
Post-preparation stability RE% ([3]; high QC level): 6.6%
Post-preparation stability RE% ([3]; low QC level): -0.2%
Short-term stability RE% ([3]; high QC level): 8.8%
Short-term stability RE% ([3]; low QC level): -2.4%
Long-term stability RE% ([3]; high QC level): 1.3%
Long-term stability RE% ([3]; low QC level): 2.3%
Freeze-thaw stability RE% ([3]; high QC level): 0.4%
Freeze-thaw stability RE% ([3]; low QC level): -0.6%
elimination in the JLZS group compared with the single-herb group [5]: decreased significantly
Intracellular concentration (L-02 cells [4]; time 0.25 h): 15.2 ± 2.9 ng/mL
Intracellular concentration (L-02 cells [4]; time 0.5 h): 26.1 ± 3.0 ng/mL
Intracellular concentration (L-02 cells [4]; time 1 h): 53.1 ± 4.0 ng/mL
Intracellular concentration (L-02 cells [4]; time 1.5 h): 71.9 ± 5.5 ng/mL
Intracellular concentration (L-02 cells [4]; time 2 h): 74.8 ± 6.2 ng/mL
Intracellular concentration (L-02 cells [4]; time 3 h): 82.0 ± 7.5 ng/mL
Intracellular concentration (L-02 cells [4]; time 5 h): 122.0 ± 8.7 ng/mL
Intracellular concentration (L-02 cells [4]; time 8 h): 98.2 ± 9.6 ng/mL

COc1cc2c(cc1O)CC[n+]1cc3c(OC)c(OC)ccc3cc1-2 [JAT, jatrorrhizine]
detection in cell lysates (L-02 cells [2]): found in the cell lysates
IC50 (cell viability) (L-02 cells [1]): not detected IC50 values within the set concentration range
Post-preparation stability RE% ([3]; high QC level): 4.7%
Post-preparation stability RE% ([3]; low QC level): -0.2%
Short-term stability RE% ([3]; high QC level): 8.0%
Short-term stability RE% ([3]; low QC level): 5.3%
Long-term stability RE% ([3]; high QC level): 4.0%
Long-term stability RE% ([3]; low QC level): 1.9%
Freeze-thaw stability RE% ([3]; high QC level): 8.0%
Freeze-thaw stability RE% ([3]; low QC level): 2.9%
Intracellular concentration (L-02 cells [4]; time 0.25 h): 13.4 ± 0.2 ng/mL
Intracellular concentration (L-02 cells [4]; time 0.5 h): 13.8 ± 0.8 ng/mL
Intracellular concentration (L-02 cells [4]; time 1 h): 14.9 ± 0.8 ng/mL
Intracellular concentration (L-02 cells [4]; time 1.5 h): 15.8 ± 1.8 ng/mL
Intracellular concentration (L-02 cells [4]; time 2 h): 16.3 ± 1.9 ng/mL
Intracellular concentration (L-02 cells [4]; time 3 h): 19.6 ± 1.0 ng/mL
Intracellular concentration (L-02 cells [4]; time 5 h): 21.2 ± 3.5 ng/mL
Intracellular concentration (L-02 cells [4]; time 8 h): 26.2 ± 6.0 ng/mL

COc1cc2c(cc1OC)-c1cc3ccc(OC)c(OC)c3c[n+]1CC2 [PAL, palmatine]
detection in cell lysates (L-02 cells [2]): found in the cell lysates
IC50 (cell viability) (L-02 cells [1]): not detected IC50 values within the set concentration range
Post-preparation stability RE% ([3]; high QC level): 6.8%
Post-preparation stability RE% ([3]; low QC level): -1.3%
Short-term stability RE% ([3]; high QC level): 2.5%
Short-term stability RE% ([3]; low QC level): 6.5%
Long-term stability RE% ([3]; high QC level): 0.0%
Long-term stability RE% ([3]; low QC level): 6.4%
Freeze-thaw stability RE% ([3]; high QC level): 6.5%
Freeze-thaw stability RE% ([3]; low QC level): -3.5%
elimination in the JLZS group compared with the single-herb group [5]: decreased significantly
Intracellular concentration (L-02 cells [4]; time 0.25 h): 11.6 ± 1.8 ng/mL
Intracellular concentration (L-02 cells [4]; time 0.5 h): 15.6 ± 2.7 ng/mL
Intracellular concentration (L-02 cells [4]; time 1 h): 29.6 ± 7.9 ng/mL
Intracellular concentration (L-02 cells [4]; time 1.5 h): 40.2 ± 10.1 ng/mL
Intracellular concentration (L-02 cells [4]; time 2 h): 49.4 ± 19.9 ng/mL
Intracellular concentration (L-02 cells [4]; time 3 h): 65.7 ± 12.4 ng/mL
Intracellular concentration (L-02 cells [4]; time 5 h): 96.9 ± 10.7 ng/mL
Intracellular concentration (L-02 cells [4]; time 8 h): 99.5 ± 24.3 ng/mL

CN1CCc2cc3c(cc2C(=O)Cc2ccc4c(c2C1)OCO4)OCO3 [PRO, protopine]
IC50 (cell viability) (L-02 cells [1]): not detected IC50 values within the set concentration range

C[C@@H]1O[C@@H](OC[C@H]2O[C@@H](Oc3c(-c4ccc(O)c(O)c4)oc4cc(O)cc(O)c4c3=O)[C@H](O)[C@@H](O)[C@@H]2O)[C@H](O)[C@H](O)[C@H]1O [RUT, rutin]
IC50 (cell viability) (L-02 cells [1]): not detected IC50 values within the set concentration range

COc1ccc2c(c1OC)CN1CCc3cc4c(cc3C1C2)OCO4 (stereo not drawn) [THB, tetrahydroberberine]
IC50 (cell viability) (L-02 cells [1]): not detected IC50 values within the set concentration range
elimination in the JLZS group compared with the single-herb group [5]: decreased significantly

c1cc2c(c3c1CC1c4cc5c(cc4CCN1C3)OCO5)OCO2 (stereo not drawn) [THC, tetrahydrocoptisine]
detection in cell lysates (L-02 cells [2]): found in the cell lysates
IC50 (cell viability) (L-02 cells [1]): not detected IC50 values within the set concentration range
Post-preparation stability RE% ([3]; high QC level): -0.9%
Post-preparation stability RE% ([3]; low QC level): -0.6%
Short-term stability RE% ([3]; high QC level): 4.6%
Short-term stability RE% ([3]; low QC level): 3.4%
Long-term stability RE% ([3]; high QC level): 1.2%
Long-term stability RE% ([3]; low QC level): 5.3%
Freeze-thaw stability RE% ([3]; high QC level): -1.4%
Freeze-thaw stability RE% ([3]; low QC level): -2.5%
elimination in the JLZS group compared with the single-herb group [5]: decreased significantly
Intracellular concentration (L-02 cells [4]; time 0.25 h): 15.8 ± 3.0 ng/mL
Intracellular concentration (L-02 cells [4]; time 0.5 h): 13.3 ± 0.5 ng/mL
Intracellular concentration (L-02 cells [4]; time 1 h): 15.0 ± 2.7 ng/mL
Intracellular concentration (L-02 cells [4]; time 1.5 h): 17.7 ± 3.6 ng/mL
Intracellular concentration (L-02 cells [4]; time 2 h): 20.3 ± 5.4 ng/mL
Intracellular concentration (L-02 cells [4]; time 3 h): 15.8 ± 2.9 ng/mL
Intracellular concentration (L-02 cells [4]; time 5 h): 15.1 ± 1.4 ng/mL
Intracellular concentration (L-02 cells [4]; time 8 h): 13.3 ± 1.8 ng/mL

COc1cc2c(cc1OC)[C@@H]1Cc3ccc(OC)c(OC)c3CN1CC2 [THP, tetrahydropalmatine]
IC50 (cell viability) (L-02 cells [1]): not detected IC50 values within the set concentration range
elimination in the JLZS group compared with the single-herb group [5]: decreased significantly
